# Patent US11696903B2, “Compounds and methods for scavenging dicarbonyl electrophiles” (VANDERBILT UNIVERSITY, priority 2019, dated 2023)
# What was measured:
# LG-protein adducts = assay: IHC for LG-protein adducts in colons of AOM-DSS mice; format: in vivo, C57BL/6 mice; conditions: 1.5 mg/ml EtHOBA
# From the text: The present inventors performed immunohistochemistry (IHC) staining using the single chain antibody (Ab) D11, which specifically binds to L G-protein adducts, and a tissue microarray (TMA) from VUMC that contains colon tissues from patients with ulcerative colitis (UC), and associated precancerous and cancerous lesions. Histopathologic diagnoses were established from clinical case material from surgical resections and confirmed by H&E staining of the TMA. High levels of L G-protein adducts were present in active colitis, dysplasia, and carcinoma compared to normal patients (FIG. 2). On the TMA, 7/9 (78%) high grade dysplasia (HGD) cores and 21/23 (91%) CAC cores were scored positive for L G adducts.
# Animals receive an i.p. injection of the carcinogen AOM (12.5 mg/kg) followed by 3 cycles of 4% DSS, each for 4 days, over a total of 56-77 days. To directly determine the role of electrophiles in colon carcinogenesis, the present inventors tested the effect of EtHOBA in C57BL/6 mice in the AOM-DSS model. Mice were given 1.5 mg/ml EtHOBA one day after AOM and continued throughout the experiments, except during the DSS cycles, to avoid mixing. The present inventors assessed electrophiles in colons of mice treated with AOM-DSS, by IHC for electrophile protein adducts. […]
# [1] = system: DNA-histone interaction (histone H4) in A549 cells; assay: Salt fractionation of A549 nuclei, histone H4 solubility; format: cell-based, human; conditions: A549, 500 μM EtSA 45 min prior to 20 μM AA
# Protocol: FIG. 14. LG-lysyl adduct formation on histone H4 decreases DNA-histone interaction. A549 cells were stimulated and given DMSO vehicle (C lanes) or 20 μM AA for 1 h (A lanes). A subgroup of cells was treated with 500 μM EtSA 45 min prior to adding AA (E lanes). Nuclei were extracted with 0.6, 0.9, or 1.2 M NaCl buffer, and the supernatant evaluated by Western blotting for histone H4. Shown is a representative Western blot (A) as well as the pooled results of 4 experiments (B). Different exposure times may have been used for the 0.9 M and 1.2 M bands. ***, p<0.001 by one-way ANOVA followed by Tukey's multiple comparisons post-test. NS, not significant.
# 60-80% confluent A549 cells were stimulated and treated with AA±500 μM EtSA before scraping cells in lysis media for nuclear isolation as above. After addition of Tritox X-100 and vortexing, 1.5 mL of each sample was aliquoted into an eppendorf and centrifuged to separate nuclei. Pellets were washed with PBS and all buffer removed. Nuclear pellets were resuspended in extraction buffer containing 0.6M, 0.9M, 1.2M or 1.5M NaCl (with 10 mM Tris, pH 7.5, 3 mM MgCl2, 0.5% NP-40, and protease inhibitor cocktail) and incubated 10 min on ice. […] This was sonicated, denatured at 95° C., and analyzed by SDS-PAGE and Western blotting, using Ponceau stain to visualize proteins and confirm equal loading, and anti-H4 antibody (Abeam, Cambridge, Mass.). […]
# [2] = system: gastric uptake of 18F-NaF (tumor marker) and 18F-FDG (inflammation marker); assay: PET/CT imaging with 18F-FDG and 18F-NaF; format: in vivo; conditions: Hp-infected mice, EtSA
# Protocol: As discussed further in the Examples, the human gastric epithelial cell line AGS was infected with Hp PMSS1±10 mM EtSA. FVB/N insulin-gastrin (INS-GAS) mice and Mongolian gerbils were infected for 8 wk with Hp PMSS1 and 7.13, respectively; EtSA (0.75% in water) was given to animals beginning one wk post-infection. Lys-LG adducts, a marker of electrophile reactions, and EtSA were quantified by LC/EST/MS/MS. Histology was analyzed on H&E staining. DNA damage was evaluated by pH2AX staining. Hp colonization was quantified by culture. Mucosal immune responses were determined by RNA profiling and by Luminex assay. Mice were imaged using PET/CT with ^18F-FDG (inflammation marker) and ^18F—NaF (tumor marker).
smiles,measurement,setting,value
"CCc1ccc(O)c(CN)c1 [EtHOBA, 5-ethyl-2-hydroxybenzylamine]",LG-protein adducts (IHC staining),LG-protein adducts,marked attenuation
same,elution of histone H4 at lower salt concentrations after AA,[1],reversed
same,gastric uptake of the tumor marker 18F-NaF,[2],decreased
same,uptake of the inflammation marker 18F-FDG,[2],not modified
